The NIST ThermoML archive (doi:10.1016/j.jct.2011.07.005)

Details: Liquid; for mass density: Vibrating tube method

CCCCC(CC)COC(=O)CCCCCCCCC(=O)OCC(CC)CCCC (centres undefined) [bis(2-ethylhexyl) decanedioate]
Details	mass density [kg/m3]	viscosity [mPa·s]
278.15 K, 101.33 kPa	924.7	–
278.15 K, Concentric cylinders viscometry	–	42.04
283.15 K, 101.33 kPa	921.2	–
283.15 K, Concentric cylinders viscometry	–	32.77
288.15 K, 101.33 kPa	917.6	–
288.15 K, Concentric cylinders viscometry	–	26.01
293.15 K, 101.33 kPa	913.9	–
293.15 K, Concentric cylinders viscometry	–	21
298.15 K, 100 kPa	909.8	–
298.15 K, 101.33 kPa	910.3	–
298.15 K, 1000 kPa	910.4	–
298.15 K, 5000 kPa	912.8	–
298.15 K, 10000 kPa	915.6	–
298.15 K, 15000 kPa	918.4	–
298.15 K, 20000 kPa	921.2	–
298.15 K, 30000 kPa	926.4	–
298.15 K, 40000 kPa	931.4	–
298.15 K, 45000 kPa	933.8	–
298.15 K, 50000 kPa	936.1	–
298.15 K, 60000 kPa	940.6	–
298.15 K, Concentric cylinders viscometry	–	17.21
303.15 K, 101.33 kPa	906.7	–
303.15 K, Concentric cylinders viscometry	–	14.32
308.15 K, 101.33 kPa	903.1	–
308.15 K, Concentric cylinders viscometry	–	12.07
313.15 K, 101.33 kPa	899.5	–
313.15 K, Concentric cylinders viscometry	–	10.28
318.15 K, 101.33 kPa	895.9	–
318.15 K, Concentric cylinders viscometry	–	8.845
323.15 K, 100 kPa	892	–
323.15 K, 101.33 kPa	892.3	–
323.15 K, 1000 kPa	892.6	–
323.15 K, 5000 kPa	895.3	–
323.15 K, 10000 kPa	898.5	–
323.15 K, 15000 kPa	901.7	–
323.15 K, 20000 kPa	904.7	–
323.15 K, 30000 kPa	910.4	–
323.15 K, 40000 kPa	915.8	–
323.15 K, 45000 kPa	918.4	–
323.15 K, 50000 kPa	920.9	–
323.15 K, 60000 kPa	925.7	–
323.15 K, Concentric cylinders viscometry	–	7.679
328.15 K, 101.33 kPa	888.7	–
328.15 K, Concentric cylinders viscometry	–	6.727
333.15 K, 101.33 kPa	885.1	–
333.15 K, Concentric cylinders viscometry	–	5.939
338.15 K, 101.33 kPa	881.4	–
338.15 K, Concentric cylinders viscometry	–	5.275
343.15 K, 101.33 kPa	877.9	–
343.15 K, Concentric cylinders viscometry	–	4.719
348.15 K, 100 kPa	874	–
348.15 K, 101.33 kPa	874.3	–
348.15 K, 1000 kPa	874.7	–
348.15 K, 5000 kPa	877.7	–
348.15 K, 10000 kPa	881.3	–
348.15 K, 15000 kPa	884.8	–
348.15 K, 20000 kPa	888.2	–
348.15 K, 30000 kPa	894.5	–
348.15 K, 40000 kPa	900.5	–
348.15 K, 45000 kPa	903.3	–
348.15 K, 50000 kPa	906	–
348.15 K, 60000 kPa	911.3	–
348.15 K, Concentric cylinders viscometry	–	4.248
353.15 K, 101.33 kPa	870.7	–
353.15 K, Concentric cylinders viscometry	–	3.843
358.15 K, 101.33 kPa	867.1	–
358.15 K, Concentric cylinders viscometry	–	3.494
363.15 K, 101.33 kPa	863.7	–
363.15 K, Concentric cylinders viscometry	–	3.169
368.15 K, 101.33 kPa	859.9	–
368.15 K, Concentric cylinders viscometry	–	2.902
373.15 K, 101.33 kPa	856.4	–
373.15 K, 1000 kPa	856.9	–
373.15 K, 5000 kPa	860.3	–
373.15 K, 10000 kPa	864.3	–
373.15 K, 15000 kPa	868.1	–
373.15 K, 20000 kPa	871.8	–
373.15 K, 30000 kPa	878.8	–
373.15 K, 40000 kPa	885.2	–
373.15 K, 45000 kPa	888.3	–
373.15 K, 50000 kPa	891.3	–
373.15 K, 60000 kPa	897	–
373.15 K, Concentric cylinders viscometry	–	2.661
398.15 K, 1000 kPa	839	–
398.15 K, 5000 kPa	842.8	–
398.15 K, 10000 kPa	847.3	–
398.15 K, 15000 kPa	851.6	–
398.15 K, 20000 kPa	855.8	–
398.15 K, 30000 kPa	863.4	–
398.15 K, 40000 kPa	870.4	–
398.15 K, 45000 kPa	873.7	–
398.15 K, 50000 kPa	877	–
398.15 K, 60000 kPa	883.1	–

viscosity [mPa·s], Falling or rolling sphere viscometry
Details	298.15 K	313.15 K	323.15 K	348.15 K	373.15 K	398.15 K
100 kPa	17	10.2	7.53	4.17	2.67	1.84
1000 kPa	17.3	10.3	7.63	4.21	2.7	1.86
5000 kPa	18.4	10.9	8.09	4.42	2.84	1.96
10000 kPa	19.9	11.7	8.68	4.69	3.03	2.07
15000 kPa	21.5	12.5	9.29	4.97	3.22	2.2
20000 kPa	23.2	13.4	9.94	5.28	3.42	2.32
30000 kPa	26.8	15.2	11.3	5.94	3.83	2.59
40000 kPa	30.8	17.3	12.8	6.68	4.27	2.86
45000 kPa	33	18.4	13.6	7.07	4.49	3.01
50000 kPa	35.2	19.6	14.4	7.48	4.72	3.16
60000 kPa	40	22	16	8.37	5.19	3.46
